Measured values as given in patent publication US11098082B2, “Antigenic peptides and uses thereof for diagnosing and treating autism” (The Regents of the University of California, priority 2015, dated 2021).

What was measured:
Type in all cases: binding, human
maternal autoantibodies = assay: validation peptide microarray incubated with maternal plasma samples (ASD vs TD mothers); settings: for binding by autoantibodies, ASD samples compared with TD samples: in words; for Number (%) Positive In ASD / Number Positive In ASD (n = 46): plasma of mothers of children with ASD, n = 46; for Number Positive In ASD (n = 46): peptide called positive (reactive) per sample; for Number (%) Positive In TD / Number Positive In TD (n = 21): plasma of mothers of typically developing children, n = 21
[1] = tested on: autoantibodies present in a maternal sample; assay: STIP1 peptide ELISA with maternal plasma samples; settings: plasma 1:400; for Final (absorbance, average minus blank): 450 nm; for Average (absorbance): 450 nm with 490 nm reference, duplicate
From the text: The peptides of Table 2 were synthesized with a linker and biotinylated. In particular, each biotinylated peptide was biotin-SGSS-peptide-DKP with SGSS (SEQ ID NO: 121) as the spacer and a diketopiperazine (DKP) group at the C-terminus of the peptide. Pierce® NeutrAvidin® protein coated microwell plates (Thermo Scientific) were washed with PBST and excess buffer was removed from the wells. The biotinylated peptides were reconstituted in pure solvent (e.g., DMSO or DMF) or a solvent/water mixture. The reconstituted peptide was diluted […] in ultra pure water to a final concentration of 5 μg/ml. 100 μl of the diluted biotinylated peptide was dispensed into the wells and incubated for 1 hour at room temperature or overnight at 4° C. on a slow rocker. Reference wells were left uncoated but filled with buffer. Nonspecific binding sites were blocked by incubation with 200 μl of a 5% Pierce® Superblock™ PBS solution for 2 hours at room temperature. Subsequently, the plates were washed six times with PBST using an automated plate washer.
The following method adapted from Sanchez et al. (Cancer Chemother. Pharmacol., 66: 919-925 (2010)) was used to detect maternal antibodies against one or more of the peptides of the ELISA-based assay described above: Maternal plasma samples were obtained including samples predetermined to be reactive to the full-length antigens of the peptides in the assay. The test samples were diluted in sample diluent (e.g., 2.5% Pierce® Superblock™ in PBST) and 100 μl of each sample was added to the wells of the assay plate. All samples were analyzed in duplicate in both peptide-coated and uncoated wells. The diluted samples were incubated for 1 hour at room temperature. The plates were then washed six times with PBST. The labeled secondary antibody solution (e.g., horseradish peroxidase-conjugated goat anti-human IgG, Invitrogen) was added to the wells and incubated for 30 minutes at room temperature. The plates were again washed eight times with PBST. The plates were then washed with PBS without Tween twice. The BD Opt EIA™ substrate (BD Biosciences Pharmingen, San Diego, Calif.) was added to the wells and incubated at room temperature for 10 minutes. The STOP solution (2N H2SO4) was added and the plate was read at 450 nm using a reference filter at 490 nm.
In particular, four maternal plasma samples were tested for their reactivity to a STIP1 peptide having the amino acid sequence PPPPPPKKETKPEPM (SEQ ID NO:22) using the following peptide ELISA protocol: • 1. Bring all reagents to room temperature. • 2. Peptides were diluted in ultra pure water from peptide stock (1 mg/mL) to a final concentration of 5 μg/mL. • 3. Add 100 μl of each peptide to corresponding wells on 96-well NeutrAvidin coated plate. • 4. Incubate plate for 1 hour at room temperature. • 5. Wash plate six times with PBS with 0.05% Tween. • 6. Add 200 μl of 5% Superblock to each well and incubated for 2 hours at room temperature. • 7. Wash plate six times with PBS with 0.05% Tween. • 8. Dilute maternal plasma samples 1:400 in sample buffer (2.5% Superblock in PBS with 0.05% Tween). • 9. Add 100 μl of diluted plasma samples to wells and incubate for 1 hour at room temperature. • 10. Wash plate six times with PBS with 0.05% Tween. • 11. Dilute Goat Anti-Human antibody 1:2,500 in PBS with 0.05% Tween. • 12. Add 100 μl of diluted Goat Anti-Human antibody to wells and incubate for 30 minutes at room temperature. • 13. Wash plate eight times with PBS with 0.05% Tween and two times with PBS Neat. • 14. Add 100 μl of BD Opt EIA substrate to each well. • 15. Incubate plate in the dark for 10 minutes at room temperature. • 16. Add 50 μl of H2SO4 to each well to stop chemical reaction. • 17. Read plate on reduced setting on spectrophotometer at 450 nm with 490 nm reference.
The samples were run in duplicate and the absorbance values were averaged. […]

[2] = tested on: autoantibodies present in a maternal sample; assay: ELISA with the full-length STIP1 polypeptide; settings: Sample No. 1190
[3] = Sample No. 99 (Medium Reactivity)
[4] = Sample No. 1190 (Highly Reactive)
[5] = Sample No. 1887 (Low Reactivity)

LQTPKIVADKDYSVTAN [SEQ ID NO: 71]
binding by autoantibodies, ASD samples compared with TD samples (maternal autoantibodies): only bound by autoantibodies when the microarrays were incubated with plasma samples obtained from mothers whose children had a diagnosis of ASD
Number (%) Positive In ASD (maternal autoantibodies): 2%
Number Positive In ASD (n = 46) (maternal autoantibodies): 1
Number (%) Positive In TD (maternal autoantibodies): 0%
Number Positive In TD (n = 21) (maternal autoantibodies): 0

KTISAKTHNSSLEYN [SEQ ID NO: 54]
binding by autoantibodies, ASD samples compared with TD samples (maternal autoantibodies): only bound by autoantibodies when the microarrays were incubated with plasma samples obtained from mothers whose children had a diagnosis of ASD
Number (%) Positive In ASD (maternal autoantibodies): 2%
Number Positive In ASD (n = 46) (maternal autoantibodies): 1
Number (%) Positive In TD (maternal autoantibodies): 0%
Number Positive In TD (n = 21) (maternal autoantibodies): 0

IAPVAEEEATVPNNKIT [SEQ ID NO: 66]
binding by autoantibodies, ASD samples compared with TD samples (maternal autoantibodies): only bound by autoantibodies when the microarrays were incubated with plasma samples obtained from mothers whose children had a diagnosis of ASD
Number (%) Positive In ASD (maternal autoantibodies): 4%
Number Positive In ASD (n = 46) (maternal autoantibodies): 2
Number (%) Positive In TD (maternal autoantibodies): 0%
Number Positive In TD (n = 21) (maternal autoantibodies): 0

MAERKQSGKAAEDEE [SEQ ID NO: 45]
Number (%) Positive In ASD (maternal autoantibodies): 22%
Number Positive In ASD (n = 46) (maternal autoantibodies): 10
Number (%) Positive In TD (maternal autoantibodies): 5%
Number Positive In TD (n = 21) (maternal autoantibodies): 1

PVAEEEATVPNNKIT [SEQ ID NO: 9]
binding by autoantibodies, ASD samples compared with TD samples (maternal autoantibodies): only bound by autoantibodies when the microarrays were incubated with plasma samples obtained from mothers whose children had a diagnosis of ASD
Number (%) Positive In ASD (maternal autoantibodies): 7%
Number Positive In ASD (n = 46) (maternal autoantibodies): 3
Number (%) Positive In TD (maternal autoantibodies): 0%
Number Positive In TD (n = 21) (maternal autoantibodies): 0

VPRGLYDGPVCEVSV [SEQ ID NO: 60]
Number (%) Positive In ASD (maternal autoantibodies): 17%
Number Positive In ASD (n = 46) (maternal autoantibodies): 8
Number (%) Positive In TD (maternal autoantibodies): 5%
Number Positive In TD (n = 21) (maternal autoantibodies): 1

VLLGVDLGSMDEEEE [SEQ ID NO: 20]
Number (%) Positive In ASD (maternal autoantibodies): 30%
Number Positive In ASD (n = 46) (maternal autoantibodies): 14
Number (%) Positive In TD (maternal autoantibodies): 19%
Number Positive In TD (n = 21) (maternal autoantibodies): 4

VVPEPGSSLLTSFEK [SEQ ID NO: 36]
binding by autoantibodies, ASD samples compared with TD samples (maternal autoantibodies): only bound by autoantibodies when the microarrays were incubated with plasma samples obtained from mothers whose children had a diagnosis of ASD
Number (%) Positive In ASD (maternal autoantibodies): 4%
Number Positive In ASD (n = 46) (maternal autoantibodies): 2
Number (%) Positive In TD (maternal autoantibodies): 0%
Number Positive In TD (n = 21) (maternal autoantibodies): 0

VDVIEDKLKGEMMDL [SEQ ID NO: 3]
Number (%) Positive In ASD (maternal autoantibodies): 15%
Number Positive In ASD (n = 46) (maternal autoantibodies): 7
Number (%) Positive In TD (maternal autoantibodies): 10%
Number Positive In TD (n = 21) (maternal autoantibodies): 2

MDLNDTFPEYKETIE (MDLNDTFPEYKETTE) [SEQ ID NO: 27]
Number (%) Positive In ASD (maternal autoantibodies): 17%
Number Positive In ASD (n = 46) (maternal autoantibodies): 8
Number (%) Positive In TD (maternal autoantibodies): 5%
Number Positive In TD (n = 21) (maternal autoantibodies): 1

HNSSLEYNIFEGMEC [SEQ ID NO: 55]
Number (%) Positive In ASD (maternal autoantibodies): 35%
Number Positive In ASD (n = 46) (maternal autoantibodies): 16
Number (%) Positive In TD (maternal autoantibodies): 19%
Number Positive In TD (n = 21) (maternal autoantibodies): 4

PAAPPAAPALSAADT [SEQ ID NO: 28]
Number (%) Positive In ASD (maternal autoantibodies): 41%
Number Positive In ASD (n = 46) (maternal autoantibodies): 19
Number (%) Positive In TD (maternal autoantibodies): 29%
Number Positive In TD (n = 21) (maternal autoantibodies): 6

ETVEFDVVEGEKGAE [SEQ ID NO: 32]
Number (%) Positive In ASD (maternal autoantibodies): 11%
Number Positive In ASD (n = 46) (maternal autoantibodies): 5
Number (%) Positive In TD (maternal autoantibodies): 5%
Number Positive In TD (n = 21) (maternal autoantibodies): 1

VDITSWYDGVREELE [SEQ ID NO: 38]
Number (%) Positive In ASD (maternal autoantibodies): 26%
Number Positive In ASD (n = 46) (maternal autoantibodies): 12
Number (%) Positive In TD (maternal autoantibodies): 14%
Number Positive In TD (n = 21) (maternal autoantibodies): 3

TPKIVADKDYSVTAN [SEQ ID NO: 11]
binding by autoantibodies, ASD samples compared with TD samples (maternal autoantibodies): only bound by autoantibodies when the microarrays were incubated with plasma samples obtained from mothers whose children had a diagnosis of ASD
Number (%) Positive In ASD (maternal autoantibodies): 2%
Number Positive In ASD (n = 46) (maternal autoantibodies): 1
Number (%) Positive In TD (maternal autoantibodies): 0%
Number Positive In TD (n = 21) (maternal autoantibodies): 0

DCIIIVVSNPVDILT [SEQ ID NO: 12]
binding by autoantibodies, ASD samples compared with TD samples (maternal autoantibodies): only bound by autoantibodies when the microarrays were incubated with plasma samples obtained from mothers whose children had a diagnosis of ASD
Number (%) Positive In ASD (maternal autoantibodies): 11%
Number Positive In ASD (n = 46) (maternal autoantibodies): 5
Number (%) Positive In TD (maternal autoantibodies): 0%
Number Positive In TD (n = 21) (maternal autoantibodies): 0

PPPPPPKKETKPEPM [SEQ ID NO: 22]
Final (absorbance, average minus blank) [1, 3]: 0.483
Average (absorbance) [1, 3]: 1.482
Final (absorbance, average minus blank) ([1]; Sample No. 142 (Negative)): 0.093
Average (absorbance) ([1]; Sample No. 142 (Negative)): 1.295
Final (absorbance, average minus blank) [1, 4]: 2.045
Average (absorbance) [1, 4]: 2.442
Final (absorbance, average minus blank) [1, 5]: 0.129
Average (absorbance) [1, 5]: 2.101

full-length STIP1 polypeptide: full-length stress-induced phosphoprotein 1 (STIP1) polypeptide used in a comparison ELISA
absorbance value [2]: ~1.0

VDLGSMDEEEEIATP [SEQ ID NO: 21]
Number (%) Positive In ASD (maternal autoantibodies): 13%
Number Positive In ASD (n = 46) (maternal autoantibodies): 6
Number (%) Positive In TD (maternal autoantibodies): 5%
Number Positive In TD (n = 21) (maternal autoantibodies): 1
